Test results from US10689394B2, “Thieno[2,3-b]pyridine derivative, quinoline derivative, and use thereof” (The University of Tokyo, priority 2016, dated 2020).

Assays:
[1] = system: SOD1 G93A transgenic mice (ALS model mice); experiment: ALS model mice, continuous intracerebroventricular administration (rotarod onset, survival, motor neuron count); type: in vivo, mouse
Procedure: Wild-type mice (C57BL/6) and SOD1 G93A transgenic mice (G1L/+ line, backcrossed to C57BL/6) were purchased from The Jackson Laboratory, and were then mated and/or bred. All assays were carried out using only male mice.
Using Brain infusion kit 3 (Alzet) and an osmotic pump (Model 2006, Alzet), the compound was continuously administered into the cerebral ventricle of the SOD1 G93A transgenic mice (average onset: 28.1+1.3-week-old (Nishitoh et al., Genes Dev 22, 1451-1464, 2008)), from the time at which the mice were 22 weeks old (0.15 μL/h, 6 weeks/pump). As a preparation stage, 50% DMSO/PBS or each compound was filled into the pump, and was then immersed in 0.9% NaCl, so that priming was carried out 37° C. for 60 hours or more. Upon installation of the pump, the mice were anesthetized by intraperitoneal administration of 0.01 μL/g xylazine (1 mg/ml, Sigma) and 0.007 μL/g Pentobarbital Sodium Salt (5.4 mg/ml, Nacalai). The head portion of each mouse was dehaired, and the mouse was then fixed on a stereotaxic instrument equipped with a manipulator (NARISHIGE). Thereafter, the skin was cut, and the skull was exposed. The coordinate of Bregma was set at 0, and the position that was 1.1 mm to the right, 0.5 mm backward, and 2.5 mm downward was set at the coordinate of the administered cerebral ventricle. The pump was arranged under the dorsal skin, a cannula was then fixed using an adhesive, and the skin on the head portion of the mouse was closed using the adhesive. The pump was exchanged with a new one every 6 weeks, until it became difficult to perform surgery due to the onset of the pathologic conditions of ALS. Upon the exchange of the pump, the mouse was anesthetized, using 4% Isoflurane (Wako Pure Chemical Industries, Ltd.) for introduction, and 2% Isoflurane for maintenance. The dorsal surface of the pump-inserted site was dehaired, and the skin was excised to remove the pump. The removed pump was exchanged with a new pump that had previously been filled with 50% DMSO/PBS or each compound. After the exchange of the pump, the excised skin was closed with Wound clip (Alzet).
From the week at which the mice became 25 weeks old, motor function was measured three times a week according to a rotarod test. ROTA-ROD (Muromachi Kikai Co., Ltd.) was set at a reached rotation speed of 40 rpm and an acceleration time of 180 seconds. The period of time required until the target mouse was fallen during 300 seconds at longest was recorded. An interval of 180 seconds was provided between two trials. Two measurements were carried out in each trial, and better results were determined to be the results of the day. An average value in a week was calculated. […]

dimerization of SOD1 = dimerization of SOD1 (Homo sapiens, UniProt P00441); experiment: Inhibition of dimerization of SOD1; type: cell-based; settings: under conditions for inhibiting the binding between mutant SOD1 and Derlin-1
Chain of dimerization of SOD1 (P00441 whole entry): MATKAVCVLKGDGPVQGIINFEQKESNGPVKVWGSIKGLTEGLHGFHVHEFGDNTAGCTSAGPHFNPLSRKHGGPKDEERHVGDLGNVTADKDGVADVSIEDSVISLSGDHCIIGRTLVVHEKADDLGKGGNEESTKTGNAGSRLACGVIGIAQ
Text: In the above-described SOD1-Derlin-1-binding inhibition experiment, SOD1 G93A that is a representative mutant SOD1 associated with the onset of the pathologic conditions of ALS was used. According to previous studies, however, it has become clear that 122 types of ALS-related mutant SOD1s bind to Derlin-1 (Fujisawa et al., Ann Neurol 72, 739-749, (2012)).

C=CCN(C(=O)c1sc2nc(-c3cccnc3)ccc2c1N)c1ccccc1 [Example 1, N-allyl-3-amino-N-phenyl-6-(3-pyridinyl)thieno[2,3-b]pyridine-2-carboxamide]
Effects on model mice ([1]; SOD1 G93A transgenic mice): Significant effects
number of motor neurons in spinal cord (Nissl staining) ([1]; SOD1 G93A transgenic mice, 31 weeks old, lumbar cord anterior horn, vs DMSO group, FIG. 11, 12): the number of motor neurons was significantly high
period of time required until the onset of the pathologic conditions (Onset), rotarod test ([1]; male SOD1 G93A transgenic mice, 3 mM continuous i.c.v. by osmotic pump from 22 weeks old, vs DMSO, FIG. 10A): the onset was significantly delayed
effect of extending the survival period (Survival) ([1]; male SOD1 G93A transgenic mice, 3 mM continuous i.c.v. by osmotic pump from 22 weeks old, vs DMSO, FIG. 10B): approximately 14%
inhibitory activity on dimerization of SOD1 (dimerization of SOD1): did not exhibit inhibitory activity
